The results in this text go back to patent US20150005288A1, “SUBSTITUTED PHENYLIMIDAZOPYRAZOLES AND USE THEREOF” (Bayer Intellectual Property GmbH, priority 2012, published 2015).

T1 sequence (Q02763 776-1124): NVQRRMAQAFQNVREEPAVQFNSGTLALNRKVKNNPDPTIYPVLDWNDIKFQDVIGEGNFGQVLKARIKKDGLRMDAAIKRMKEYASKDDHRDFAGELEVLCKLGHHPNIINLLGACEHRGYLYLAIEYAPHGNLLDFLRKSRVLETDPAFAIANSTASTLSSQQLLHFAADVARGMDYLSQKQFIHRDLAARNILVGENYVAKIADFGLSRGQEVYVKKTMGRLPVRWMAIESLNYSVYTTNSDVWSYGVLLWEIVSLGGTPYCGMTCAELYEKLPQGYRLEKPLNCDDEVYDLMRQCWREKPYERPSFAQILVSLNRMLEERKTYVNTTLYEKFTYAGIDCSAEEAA

The experiment addresses T1, intracellular domain of human Tie2 (GST fusion protein) (Homo sapiens, UniProt Q02763).
T1 construct: intracellular domain of human Tie2 (amino acids 776-1124); made in house; host or cells: Baculovirus-infected insect cells (Hi5)
Description: Tie2 kinase assay (Tie2-TR-FRET). Format: biochemical. The note with it: ATP concentration 1 mM, in some cases means of several independent determinations. In outline:
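GST fusion of human Tie2 intracellular domain (aa 776-1124, Hi5-expressed), ~30 ng/ml, pre-incubated 15 min with compound, then 1 mM ATP and 1 μM biotinylated peptide, 60 min at 22 °C, pH 7. TR-FRET (Eu anti-phosphotyrosine/streptavidin-XL665, 665/620 nm ratio). […] 20 μM–0.073 nM in duplicate; IC50 by 4-parameter fit.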
As to `Cc1ccc(NC(=O)c2cc(C(C)(C)O)cc(S(F)(F)(F)(F)F)c2)cc1-n1ccn2nc(-c3cncs3)cc12` [Example 178, 3-(2-Hydroxypropan-2-yl)-N-{4-methyl-3-[6-(1,3-thiazol-5-yl)-1H-imidazo[1,2-b]pyrazol-1-yl]-phenyl}-5-(pentafluoro-λ^6-sulphanyl)benzamide], the concentration for half-maximal inhibition (IC50) worked out at 0.8 nM.
The result for `Cc1ccc(NC(=O)c2cccc(C(C)(C)C)c2)cc1-n1ccn2nc(-c3cccnc3)cc12` [Example 123, 3-tert-Butyl-N-{4-methyl-3-[6-(pyridin-3-yl)-1H-imidazo[1,2-b]pyrazol-1-yl]phenyl}benzamide] reads 56 nM.
In turn, `Cc1ccc(NC(=O)c2cc(CN3CCCC3)cc(C(C)(C)C)c2)cc1-n1ccn2nc(-c3cn[nH]c3)cc12` [Example 9, 3-tert-Butyl-N-{4-methyl-3-[6-(1H-pyrazol-4-yl)-1H-imidazo[1,2-b]pyrazol-1-yl]phenyl}-5-(pyrrolidin-1-ylmethyl)benzamide] showed a half-inhibitory concentration (IC50) of 6.7 nM.
As to `N#Cc1cc(C(=O)Nc2cccc(-n3ccn4nc(-c5cccnc5)cc34)c2)cc(S(F)(F)(F)(F)F)c1` [Example 87, 3-Cyano-5-(pentafluoro-λ^6-sulphanyl)-N-{3-[6-(pyridin-3-yl)-1H-imidazo[1,2-b]pyrazol-1-yl]-phenyl}benzamide], 980 nM corresponded to half-maximal inhibition (IC50).
Next, `Cc1ccc(-n2ccn3nc(-c4cccnc4)cc23)cc1NC(=O)c1cc(Br)cc(C(C)(C)C)c1` [Example 78]: 115 nM.
Next, `Cc1cc(C)c(-n2ccn3nc(-c4cccnc4)cc23)cc1NC(=O)c1cccc(C(C)(C)C(F)(F)F)c1` [Example 139, N-{2,4-Dimethyl-5-[6-(pyridin-3-yl)-1H-imidazo[1,2-b]pyrazol-1-yl]phenyl}-3-(1,1,1-trifluoro-2-methylpropan-2-yl)benzamide]: 0.5 nM; `Cc1cc(C)c(-n2ccn3nc(-c4cccnc4)cc23)cc1NC(=O)c1cc(N2CCC(C#N)CC2)cc(S(F)(F)(F)(F)F)c1` [Example 144, 3-(4-Cyanopiperidin-1-yl)-N-{2,4-dimethyl-5-[6-(pyridin-3-yl)-1H-imidazo[1,2-b]pyrazol-1-yl]-phenyl}-5-(pentafluoro-λ^6-sulphanyl)benzamide]: 0.6 nM.
`Cc1cc(C)c(-n2ccn3nc(-c4cccnc4)cc23)cc1NC(=O)c1cccc(OC(F)F)c1` [Example 128, N-{2,4-Dimethyl-5-[6-(pyridin-3-yl)-1H-imidazo[1,2-b]pyrazol-1-yl]phenyl}-3-(difluoromethoxy)-benzamide] gave an IC50 of 43 nM.
Next, `Cc1cc(NC(=O)c2cccc(S(F)(F)(F)(F)F)c2)cc(-n2ccn3nc(-c4cccnc4)cc23)c1C` [Example 100, N-{3,4-Dimethyl-5-[6-(pyridin-3-yl)-1H-imidazo[1,2-b]pyrazol-1-yl]phenyl}-3-(pentafluoro-λ^6-sulphanyl)benzamide]: 175 nM; `Cc1cc(C)c(-n2ccn3nc(-c4cccnn4)cc23)cc1NC(=O)c1cc(C#N)cc(S(F)(F)(F)(F)F)c1` [Example 171, 3-Cyano-N-{2,4-dimethyl-5-[6-(pyridazin-3-yl)-1H-imidazo[1,2-b]pyrazol-1-yl]phenyl}-5-(pentafluoro-λ^6-sulphanyl)benzamide]: 0.3 nM.
For `Cc1ccc(NC(=O)c2cccc(S(F)(F)(F)(F)F)c2)c(C)c1-n1ccn2nc(-c3cccnc3)cc12` [Example 119, N-{2,4-Dimethyl-3-[6-(pyridin-3-yl)-1H-imidazo[1,2-b]pyrazol-1-yl]phenyl}-3-(pentafluoro-λ^6-sulphanyl)benzamide], the IC50 amounted to 110 nM.
Take `N#Cc1cc(C(=O)Nc2cccc(-n3ccn4nc(-c5cccnc5)cc34)c2F)cc(S(F)(F)(F)(F)F)c1` [Example 81, 3-Cyano-N-{2-fluoro-3-[6-(pyridin-3-yl)-1H-imidazo[1,2-b]pyrazol-1-yl]phenyl}-5-(pentafluoro-λ^6-sulphanyl)benzamide]: the IC50 amounted to 435 nM.
Regarding `Cc1c(F)cc(NC(=O)c2cccc(S(F)(F)(F)(F)F)c2)cc1-n1ccn2nc(-c3cccnc3)cc12` [Example 103, N-{3-Fluoro-4-methyl-5-[6-(pyridin-3-yl)-1H-imidazo[1,2-b]pyrazol-1-yl]phenyl}-3-(pentafluoro-λ^6-sulphanyl)benzamide], the 50% inhibitory concentration (IC50) worked out at 130 nM.
`Cc1ccc(NC(=O)c2cc(OC3CCNC3)cc(S(F)(F)(F)(F)F)c2)cc1-n1ccn2nc(-c3cccnc3)cc12` (centres unmarked) [Example 25, N-{4-Methyl-3-[6-(pyridin-3-yl)-1H-imidazo[1,2-b]pyrazol-1-yl]phenyl}-3-(pentafluoro-λ^6-sulphanyl)-5-(pyrrolidin-3-yloxy)benzamide]: the IC50 was 1.9 nM.
The result for `Cc1cc(C)c(-n2ccn3nc(-c4cccnc4)cc23)cc1NC(=O)c1cc(CC(=O)OC(C)(C)C)cc(S(F)(F)(F)(F)F)c1` [Example 150, tert-Butyl [3-({2,4-dimethyl-5-[6-(pyridin-3-yl)-1H-imidazo[1,2-b]pyrazol-1-yl]phenyl}-carbamoyl)-5-(pentafluoro-λ^6-sulphanyl)phenyl]acetate] reads 2.4 nM; that for `N#Cc1cc(C(=O)Nc2ccc(Cl)c(-n3ccn4nc(-c5cccnc5)cc34)c2)cc(S(F)(F)(F)(F)F)c1` [Example 97, N-{4-Chloro-3-[6-(pyridin-3-yl)-1H-imidazo[1,2-b]pyrazol-1-yl]phenyl}-3-cyano-5-(pentafluoro-λ^6-sulphanyl)benzamide], 9.2 nM.
On to `Cc1ccc(NC(=O)c2cccc(OC(C)C)c2)cc1-n1ccn2nc(-c3cccnc3)cc12` [Example 60, N-{4-Methyl-3-[6-(pyridin-3-yl)-1H-imidazo[1,2-b]pyrazol-1-yl]phenyl}-3-(propan-2-yloxy)-benzamide], for which the IC50 amounted to 125 nM.
`Cc1ccc(NC(=O)c2cc(Br)cc(S(F)(F)(F)(F)F)c2)c(C)c1-n1ccn2nc(-c3cccnc3)cc12` [Example 120, 3-Bromo-N-{2,4-dimethyl-3-[6-(pyridin-3-yl)-1H-imidazo[1,2-b]pyrazol-1-yl]phenyl}-5-(pentafluoro-λ^6-sulphanyl)benzamide] yielded an IC50 of 37 nM.
In turn, `Cc1cc(C)c(-n2ccn3nc(-c4cccnc4)cc23)cc1NC(=O)c1cccc(OC(F)(F)F)c1` [Example 127, N-{2,4-Dimethyl-5-[6-(pyridin-3-yl)-1H-imidazo[1,2-b]pyrazol-1-yl]phenyl}-3-(trifluoromethoxy)benzamide] came in with an IC50 of 1.4 nM.
The result for `Cc1cc(C)c(-n2ccn3nc(-c4cncnc4)cc23)cc1NC(=O)c1cc(C#N)cc(S(F)(F)(F)(F)F)c1` [Example 166, 3-Cyano-N-{2,4-dimethyl-5-[6-(pyrimidin-5-yl)-1H-imidazo[1,2-b]pyrazol-1-yl]phenyl}-5-(pentafluoro-λ^6-sulphanyl)benzamide] reads 0.3 nM; that for `COc1cc(C(=O)Nc2ccc(C)c(-n3cc(C)n4nc(-c5cn[nH]c5)cc34)c2)cc(S(F)(F)(F)(F)F)c1` [Example 13, 3-Methoxy-N-{4-methyl-3-[3-methyl-6-(1H-pyrazol-4-yl)-1H-imidazo[1,2-b]pyrazol-1-yl]-phenyl}-5-(pentafluoro-λ^6-sulphanyl)benzamide], 1.3 nM.
Compound `Cc1c(F)cc(NC(=O)c2cc(C#N)cc(S(F)(F)(F)(F)F)c2)cc1-n1ccn2nc(-c3cccnc3)cc12` [Example 105, 3-Cyano-N-{3-fluoro-4-methyl-5-[6-(pyridin-3-yl)-1H-imidazo[1,2-b]pyrazol-1-yl]phenyl}-5-(pentafluoro-λ^6-sulphanyl)benzamide] registered an IC50 of 39 nM.
Consider `O=C(Nc1cccc(-n2ccn3nc(-c4cccnc4)cc23)c1O)c1cccc(S(F)(F)(F)(F)F)c1` [Example 82, N-{2-Hydroxy-3-[6-(pyridin-3-yl)-1H-imidazo[1,2-b]pyrazol-1-yl]phenyl}-3-(pentafluoro-λ^6-sulphanyl)benzamide], for which half-maximal inhibition (IC50) required 250 nM.
The result for `N#Cc1cc(C(=O)Nc2ccc(F)c(-n3ccn4nc(-c5cccnc5)cc34)c2)cc(S(F)(F)(F)(F)F)c1` [Example 71, 3-Cyano-N-{4-fluoro-5-[6-(pyridin-3-yl)-1H-imidazo[1,2-b]pyrazol-1-yl]phenyl}-3-(pentafluoro-λ^6-sulphanyl)benzamide] reads 34 nM.
Next, `COc1ccc(NC(=O)c2cc(C#N)cc(S(F)(F)(F)(F)F)c2)cc1-n1ccn2nc(-c3cccnc3)cc12` [Example 99, 3-Cyano-N-{4-methoxy-3-[6-(pyridin-3-yl)-1H-imidazo[1,2-b]pyrazol-1-yl]phenyl}-5-(pentafluoro-λ^6-sulphanyl)benzamide]: 240 nM; `Cc1cc(C)c(-n2ccn3nc(-c4cccnc4)cc23)cc1NC(=O)c1cccc(OCC(F)(F)F)c1` [Example 130, N-{2,4-Dimethyl-5-[6-(pyridin-3-yl)-1H-imidazo[1,2-b]pyrazol-1-yl]phenyl}-3-(2,2,2-trifluoroethoxy)benzamide]: 24 nM; `Cc1ccc(NC(=O)c2cc(N3CCN(C)CC3)cc(C(C)(C)C)c2)cc1-n1ccn2nc(-c3cn[nH]c3)cc12` [Example 8, 3-tert-Butyl-5-(4-methylpiperazin-1-yl)-N-{4-methyl-3-[6-(1H-pyrazol-4-yl)-1H-imidazo[1,2-b]-pyrazol-1-yl]phenyl}benzamide]: 1.9 nM.
As for `Cc1cc(C)c(-n2ccn3nc(-c4cccnc4)cc23)cc1NC(=O)c1cccc(SC(F)(F)F)c1` [Example 126, N-{2,4-Dimethyl-5-[6-(pyridin-3-yl)-1H-imidazo[1,2-b]pyrazol-1-yl]phenyl}-3-[(trifluoromethyl)-sulphanyl]benzamide], the half-maximal inhibitory concentration (IC50) came to 1.2 nM.
Next, `Cc1ccc(NC(=O)c2ccnc(C(C)(C)C)c2)cc1-n1ccn2nc(-c3cccnc3)cc12` [Example 64, 2-tert-Butyl-N-{4-methyl-3-[6-(pyridin-3-yl)-1H-imidazo[1,2-b]pyrazol-1-yl]phenyl}isonicotinamide]: 41 nM.

Broadly, the IC50 is the point on the concentration scale where inhibition reaches its midpoint. Lower therefore signals greater potency in that assay.
